# Experimental data: patent US20090221559A1 (priority 2005, published 2009)
# Where two headings read alike, the source gives them in different places.
# Key:
# [1] = molecular target: T1, HCV NS5B polymerase (His-tagged, C-terminal 21 amino acid deleted NS5B, HC-J4) (Hepatitis C virus genotype 1b, UniProt O92972); experiment: NS5b polymerase assay (biochemical RdRp assay, 3H-GTP incorporation, SPA beads); set-up: species or system HCV genotype 1b
# T1 construct: The cDNA encoding NS5B amino acid 1-570 (HC-J4, genotype 1b); His tag (His6, from pET-21b) (C); made in house; host or cells: E. coli BL21 (DE3)
# Summary of the method: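 3H-GTP incorporation into newly made RNA was captured on SPA beads added in EDTA after 2 h at 25 °C. Compounds in DMSO met preformed enzyme–template complex (200 nM truncated His-NS5B, HC-J4 1b; biotin-oligo(rG13)/poly(rC)) for 15 min at RT, then 600 nM GTP, 5 mM MgCl2, Tris pH 7.5 started polymerization.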
# [2] = test system: HCV replicon RNA replication in Huh-7 luc/neo (Huh-Luc) cells; experiment: HCV replicon assay (stable replicon cell reporter assay, luciferase read-out); format: cell-based, HCV type 1b
# Summary of the method: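 Three-day compound exposure used Huh-Luc cells, which harbour an autonomously replicating genotype 1b NS3-NS5B replicon expressing luciferase and neo^R. Luciferase signal served as the replication read-out, and dose-response curves came from several concentrations per compound.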
# [3] = NS5B Polymerase Assay IC50 (μM)
# [4] = Hepatitis C virus, Huh-7, 72 h, read-out: Replicon Assay EC50 (μM), Huh-Luc cells, incubation of three days, luciferase activity
# [5] = NS5B Polymerase Assay IC50, 200 nM enzyme, 3H-GTP incorporation, 2 h at 25° C.
# [6] = Hepatitis C virus, Huh-7, 72 h, read-out: Replicon Assay EC50, Huh-Luc cells, three days incubation, luciferase activity
# T1 sequence (O92972 2417-3000, looked up, stated change not applied): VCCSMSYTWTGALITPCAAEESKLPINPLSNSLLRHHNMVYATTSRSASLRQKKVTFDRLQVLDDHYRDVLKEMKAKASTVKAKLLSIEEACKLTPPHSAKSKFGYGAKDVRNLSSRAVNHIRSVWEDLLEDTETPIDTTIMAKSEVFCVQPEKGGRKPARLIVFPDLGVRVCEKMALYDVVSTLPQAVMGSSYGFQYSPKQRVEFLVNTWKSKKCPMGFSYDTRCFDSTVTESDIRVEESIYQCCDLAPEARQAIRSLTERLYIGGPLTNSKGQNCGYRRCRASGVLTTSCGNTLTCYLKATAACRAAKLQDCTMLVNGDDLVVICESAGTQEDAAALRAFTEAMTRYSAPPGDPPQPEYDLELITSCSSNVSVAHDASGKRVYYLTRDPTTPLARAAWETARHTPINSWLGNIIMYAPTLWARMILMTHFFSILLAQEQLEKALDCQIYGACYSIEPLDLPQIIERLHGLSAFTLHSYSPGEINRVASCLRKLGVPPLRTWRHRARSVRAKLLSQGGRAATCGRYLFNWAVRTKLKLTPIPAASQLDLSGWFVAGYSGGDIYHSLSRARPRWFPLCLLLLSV
Molecule,"IC50 [1, 3]","EC50 [2, 4]","IC50 [1, 5]","EC50 [2, 6]",further results
O=C1CC(c2ccc(Cl)cc2)CC2=C1C(c1cccc([N+](=O)[O-])c1)Nc1ccccc1N2 (stereo not drawn) [compound 337],> 42.7 µM,17.5 µM,,,
O=C1CC(c2ccccc2)CC2=C1C(c1ccc(C(F)(F)F)cc1)Nc1ccccc1N2 (stereo not drawn) [compound 343],> 42.7 µM,11 µM,,,
CC(=O)N1c2ccccc2NC2=C(C(=O)CC(C)(C)C2)C1c1cccc(O)c1 (stereo not drawn) [compound 117],,,> 42.7 µM,> 32 µM,
CC1(C)CC(=O)C2=C(C1)Nc1ccccc1N(C(=O)c1ccccc1)C2c1ccc([N+](=O)[O-])cc1 (stereo not drawn) [compound 13],,,> 42.7 µM,20.4 µM,
CCN(CC)c1ccc(C2C3=C(CC(C)(C)CC3=O)Nc3ccccc3N2C(C)=O)cc1 (stereo not drawn) [compound 131],,,> 42.7 µM,> 32 µM,
COc1ccc(C2Nc3ccccc3NC3=C2C(=O)CC(C)(C)C3)cc1OCc1ccccc1 (stereo not drawn) [compound 424],11.6 µM,12.5 µM,,,
COc1cccc(C2Nc3ccccc3NC3=C2C(=O)CC(c2ccc(Cl)cc2)C3)c1OC (stereo not drawn) [compound 348],29.6 µM,4.48 µM,,,
COc1ccc(C2CC(=O)C3=C(C2)Nc2ccccc2NC3c2cc(Br)c(O)c(OC)c2)cc1OC (stereo not drawn) [compound 397],> 42.7 µM,6.13 µM,,,
CC(=O)N1c2c(C)cccc2NC2=C(C(=O)CC(C)(C)C2)C1c1ccc(Cl)cc1Cl (stereo not drawn) [compound 314],,,4.43 µM,3 µM,
CCOc1ccc(C2C3=C(CC(C)(C)CC3=O)Nc3ccccc3N2C(C)=O)cc1 (stereo not drawn) [compound 57],,,> 42.7 µM,4.47 µM,
CC(=O)N1c2ccccc2NC2=C(C(=O)CC(C)(C)C2)C1c1ccc(Cl)cc1 (stereo not drawn) [compound 111],,,> 42.7 µM,> 32 µM,
"3-(2-benzyloxyphenyl)-11-[3-(4-chlorobenzoyloxy)phenyl]-2,3,4,5,10,11-hexahydro-dibenzo[b,e][1,4]diazepin-1-one [compound 513]",,,,,"IC50 ([1]; read-out: NS5B Polymerase Assay IC50): 70.1 µM; EC50 ([2]; Huh-Luc cells, incubation of three days, luciferase activity, read-out: Replicon Assay EC50): 3.67 µM"
CCOc1ccc(C2C3=C(CC(C)(C)CC3=O)Nc3ccccc3N2C(=O)Cc2ccccc2)cc1 (stereo not drawn) [compound 86],,,> 42.7 µM,9.69 µM,
COc1ccc(C2CC(=O)C3=C(C2)Nc2ccccc2NC3c2ccc(C)c([N+](=O)[O-])c2)cc1 (stereo not drawn) [compound 359],> 42.7 µM,7.33 µM,,,
CCn1c2ccccc2c2cc([C@@H]3Nc4ccccc4NC4=C3C(=O)C[C@@H](c3ccc(Cl)cc3)C4)ccc21 [compound 480],> 42.7 µM,5.7 µM,,,
"CC1(C)CC(=O)C2=C(C1)Nc1ccccc1NC2/C(Br)=C/c1ccccc1 (racemic) [compound 500, 11-(1-Bromo-2-phenylvinyl)-3,3-dimethyl-2,3,4,5,10,11-hexahydro-dibenzo[b,e][1,4]diazepin-1-one]",> 133 µM,26.5 µM,,,
"CC(=O)N1c2ccccc2NC2=C(C(=O)CC(C)(C)C2)[C@@H]1c1ccc(OCc2ccccc2)cc1 (single isomer, unassigned) [compound 302]",,,92.5 µM,1.87 µM,
CC1(C)CC(=O)C2=C(C1)Nc1ccccc1N(C(=O)Cc1ccc(Cl)cc1)C2c1cccs1 (stereo not drawn) [compound 245],,,> 42.6 µM,3.51 µM,
COc1ccc(C2C3=C(CC(c4ccc(C)cc4)CC3=O)Nc3ccccc3N2C(=O)c2ccccc2)cc1OC (mixture of isomers) [compound 197],,,,,"IC50 ([1]; 200 nM enzyme, 3H-GTP incorporation, 2 h at 25° C., read-out: NS5B Polymerase Assay IC50): > 33.3 µM; EC50 ([2]; Huh-Luc cells, three days incubation, luciferase activity, read-out: Replicon Assay EC50): 8.97 µM"
Cc1ccc(C2CC(=O)C3=C(C2)Nc2ccccc2NC3c2ccc(C)cc2)cc1 (stereo not drawn) [compound 408],> 33.3 µM,14.2 µM,,,
CC(C)Oc1ccc(C2C3=C(CC(C)(C)CC3=O)Nc3ccccc3N2C(=O)C(F)(F)F)cc1 (stereo not drawn) [compound 100],,,> 42.7 µM,3.6 µM,
CCCCC(=O)N1c2ccccc2NC2=C(C(=O)CC(C)(C)C2)C1c1cccs1 (stereo not drawn) [compound 263],,,> 42.7 µM,10.4 µM,
CCCCCC(=O)N1c2ccccc2NC2=C(C(=O)CC(C)(C)C2)C1c1ccc(OC(C)C)cc1 (stereo not drawn) [compound 83],,,> 42.7 µM,4.16 µM,
CC1(C)CC(=O)C2=C(C1)Nc1ccccc1NC2c1ccccc1OCc1ccccc1 (stereo not drawn) [compound 425],> 42.7 µM,13.2 µM,,,
